Measured values published in publication PMC2785468, “Androgen Receptor Mutations Associated with Androgen Insensitivity Syndrome: A High Content Analysis Approach Leading to Personalized Medicine” (PLoS ONE, 2009).

Biological target: T1, AR-R840C (Homo sapiens, UniProt P10275, R841C)
T1 construct: expressed in transfected cells
T1 sequence (P10275 1-920 R841C): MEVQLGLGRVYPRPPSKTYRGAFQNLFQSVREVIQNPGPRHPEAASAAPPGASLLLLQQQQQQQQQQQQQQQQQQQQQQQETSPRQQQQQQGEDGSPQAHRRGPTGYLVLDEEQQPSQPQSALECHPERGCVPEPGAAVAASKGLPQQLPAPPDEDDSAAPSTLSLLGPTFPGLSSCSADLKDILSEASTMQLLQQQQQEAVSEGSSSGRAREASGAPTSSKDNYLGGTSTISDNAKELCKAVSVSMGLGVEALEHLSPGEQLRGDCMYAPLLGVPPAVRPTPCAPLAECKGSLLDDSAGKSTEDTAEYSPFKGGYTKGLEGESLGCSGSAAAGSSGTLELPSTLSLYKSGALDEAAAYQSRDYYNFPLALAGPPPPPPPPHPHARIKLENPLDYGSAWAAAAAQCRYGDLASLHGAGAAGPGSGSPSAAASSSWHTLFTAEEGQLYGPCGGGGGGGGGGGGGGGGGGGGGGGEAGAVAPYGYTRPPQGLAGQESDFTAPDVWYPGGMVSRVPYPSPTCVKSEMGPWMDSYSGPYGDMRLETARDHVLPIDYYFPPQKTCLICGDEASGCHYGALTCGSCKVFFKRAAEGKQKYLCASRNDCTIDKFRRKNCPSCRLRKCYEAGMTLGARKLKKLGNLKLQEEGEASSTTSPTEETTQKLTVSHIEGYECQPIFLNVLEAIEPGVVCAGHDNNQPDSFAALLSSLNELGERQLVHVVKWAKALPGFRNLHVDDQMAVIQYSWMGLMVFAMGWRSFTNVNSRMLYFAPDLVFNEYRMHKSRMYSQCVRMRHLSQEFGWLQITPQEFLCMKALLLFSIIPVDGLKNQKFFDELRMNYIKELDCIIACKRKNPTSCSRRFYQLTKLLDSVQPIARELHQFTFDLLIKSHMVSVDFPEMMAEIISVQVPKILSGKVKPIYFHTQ
Assay type: cell-based
Experimental: To determine the global effect of the various AIS mutations on AR signaling, each was analyzed using HCA. This technology allows simultaneous quantification of AR protein expression, nuclear translocation, subnuclear patterning, and transcriptional activity. The analysis was done in HeLa cell lines stably transfected with wild type or mutant ARs fused with green fluorescent protein, or using AR immunofluorescence in primary cultures of genital skin fibroblasts generated from foreskin biopsies of historical AIS patients, or of normal neonates undergoing circumcision at birth. To prevent the effects of receptor over-expression, stable HeLa cells were carefully selected to express AR levels similar to LNCaP as previously described. Prior to ligand treatment, HeLa cells were transfected with the pARR2PB-dsRED2skl reporter plasmid, consisting of the AR responsive promoter ARR2PB [31] driving expression of the red fluorescent protein reporter dsRED2skl engineered to target peroxisomes.
For studies utilizing HeLa GFP-AR cell lines, twenty-four hours before transfection with pARR2PB-dsRED2skl, cells were plated onto 100 mm plastic dishes in medium supplemented with 5% charcoal-stripped and dialyzed-FBS. Transient introduction of the pARR-2PB-dsRED2skl reporter construct was performed using 6.0 µg reporter plasmid and 6.0 µg carrier DNA (BlueScript, Stratagene, San Diego, CA) using Transfectin (Biorad) following standard protocols. After 8-hour incubation, DNA/lipid complexes were removed. Cells were then trypsinized and replated at 10,000 cells per well in Nunc poly-D-lysine treated 96-well optical glass bottom plates and incubated an additional 12 hours to allow for cell adhesion. […] Compound dilutions and final addition to multi-well plates were performed using a Beckman Biomek NX robotic platform to ensure repeatability from experiment to experiment. After incubation was complete, using the Biomek NX robot, plates were washed with PBS and fixed for 20 min at RT in 4% formaldehyde prepared in CSK buffer (80 mM potassium PIPES, pH 6.8, 5 mM EGTA, 2 mM MgCl2). After fixation, cells were briefly permeabilized (5 min) with 0.5% Triton-X and prepared for imaging by washing in PBS, aspirating the washed solution, and adding a 1 ng/ml DAPI solution to stain DNA and a generic protein stain (CellMask, Invitrogen) to facilitate cell and nuclear image segmentation. Cells were imaged in PBS.
Cells were imaged using the Cell Lab IC-100 Image Cytometer (IC-100; Beckman Coulter) platform that consists of 1) Nikon Eclipse TE2000-U Inverted Microscope (Nikon; Melville, NY); 2) Chroma 82000 triple band filter set (Chroma; Brattleboro, VT); 3) an imaging camera: Hamamatsu ORCA-ER Digital CCD camera (Hamamatsu; Bridgewater, NJ); and 4) a focusing camera: Photonics COHU Progressive scan camera (Photonics; Oxford, MA). […] In general, 49 to 64 images were captured per well for image analysis.
While our initial AR studies using HTM were based upon CytoShop (Beckman-Coulter), [15], [33], these approaches were refined in the current work with the more robust server-client Pipeline Pilot image analysis platform (Basic and Advanced Imagine Collections, Pipeline Pilot 7.5, Accelrys, San Diego). Initially, the background signal was removed from all images using plate- and channel-specific correction images, generated by the sum projection of >600 randomly selected images for each channel from the image set. This allows for a pixel-by-pixel background subtraction that compensates any consistent uneven background artifacts in the image set. Furthermore, users are able to customize the degree of background subtraction by applying a multiplier to each correction image, useful for identification of objects such as nuclei or cell borders. After background subtraction, nuclear masks were generated using a combination of non-linear least squares and watershed-from-markers image manipulations of the DAPI images (Fig. 1B).

C[C@@H]1CC2=CC(=O)CC[C@@H]2[C@H]2CC[C@@]3(C)[C@@H](CC[C@]3(C)O)[C@@H]21 [Mb, Mibolerone]
hyperspeckling (HeLa AR-R840C): 8 fold increase | transcriptional activation (HeLa AR-R840C): 11 fold | increase in nuclear translocation (HeLa AR-R840C, vs untreated): 29% | Nuclear Translocation, Max (HeLa R840C, % signal present in the nucleus): 63.7±1.1% | Hyperspeckling, Max (HeLa R840C, absolute numerical measurement): 269±20 | Transcriptional Activity, Max (HeLa R840C, pARR2PB-dsRED2skl reporter, absolute numerical measurement): 35.3±1.4
